Source: patent US9845310B2 (priority 2015, dated 2017)
Read-outs that look alike come from different tables or passages of the source.

How the values were obtained:
[1] = biological target: APJ (Homo sapiens (Human), UniProt P35414); experiment: [35S]GTPγS binding assay on membranes from CHO cells stably expressing human APJ receptor; type: biochemical
Procedure: A GTPγS binding assay was performed on membranes prepared from CHO cells stably expressing human APJ receptor. The optimum experimental conditions for the concentrations of GDP, MgCl2, and NaCl in the assay buffer were initially determined. The assay was performed in assay buffer [20 mM HEPES, pH 7.5, 5 mM MgCl2, and 0.1% (w/v) BSA with 200 mM NaCl, 3 M GDP] and membranes expressing human APJ receptor/well along with WGA PS beads. The reaction was initiated by addition of 0.2 nM [^35S]GTPγS (Perkin Elmer Life and Analytical Sciences, Waltham USA) in the absence or presence of various ligands and incubated at RT for 90 min. Nonspecific binding was determined in the presence of 100 M GTPγS and was always less than 0.2% of total binding.

[2] = system: naive Sprague Dawley rat hearts; conditions: ex vivo isolated perfused rat heart, percent change over vehicle; for Isolated Heart Assay dP/dtmax(%): contractility; for Isolated Heart Assay dP/dtmin(%): relaxation (lusitropic)
[3] = read-out: Activity hAPJ SPA EC50 IP

Chain of APJ (P35414 whole entry, the tested form may be a part): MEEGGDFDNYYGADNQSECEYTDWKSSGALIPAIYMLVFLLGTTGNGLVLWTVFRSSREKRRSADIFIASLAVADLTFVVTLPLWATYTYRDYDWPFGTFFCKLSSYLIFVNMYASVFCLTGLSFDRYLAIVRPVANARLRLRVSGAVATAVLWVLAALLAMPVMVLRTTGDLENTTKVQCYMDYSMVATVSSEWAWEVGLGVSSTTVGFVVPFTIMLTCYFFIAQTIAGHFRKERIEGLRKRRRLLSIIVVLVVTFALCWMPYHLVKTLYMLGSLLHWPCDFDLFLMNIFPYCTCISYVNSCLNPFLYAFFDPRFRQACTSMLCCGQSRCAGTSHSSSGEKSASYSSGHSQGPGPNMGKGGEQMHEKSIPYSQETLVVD

Structure (SMILES) | EC50 [1, 3] [µM] | Isolated Heart Assay dP/dtmax(%) [2] [%] | Isolated Heart Assay dP/dtmin(%) [2] [%] | also measured
COc1cccc(OC)c1-n1c(NS(=O)(=O)[C@@H](C)Cc2ncc(F)cn2)nnc1-c1cncc(C)c1 (mixture of isomers) [Example 207.0, (S)-N-(4-(2,6-dimethoxyphenyl)-5-(5-methylpyridin-3-yl)-4H-1,2,4-triazol-3-yl)-1-(5-fluoropyrimidin-2-yl)propane-2-sulfonamide and (R)-N-(4-(2,6-dimethoxyphenyl)-5-(5-methylpyridin-3-yl)-4H-1,2,4-triazol-3-yl)-1-(5-fluoropyrimidin-2-yl)propane-2-sulfonamide] | 0.0033 | – | – | –
COc1cccc(OC)c1-n1c(NS(=O)(=O)[C@@H](C)Cc2ncc(F)cn2)nnc1-c1cnccc1C (mixture of isomers) [Example 216.0, (2S)-N-(4-(2,6-dimethoxyphenyl)-5-(4-methyl-3-pyridinyl)-4H-1,2,4-triazol-3-yl)-1-(5-fluoro-2-pyrimidinyl)-2-propanesulfonamide and (2R)-N-(4-(2,6-dimethoxyphenyl)-5-(4-methyl-3-pyridinyl)-4H-1,2,4-triazol-3-yl)-1-(5-fluoro-2-pyrimidinyl)-2-propanesulfonamide] | 0.57 | – | – | –
COc1cccc(OC)c1-n1c(NS(=O)(=O)[C@@H](C)Cc2ncc(F)cn2)nnc1-c1cncc(Cl)c1 (mixture of isomers) [Example 219.0, (2S)-N-(5-(5-chloro-3-pyridinyl)-4-(2,6-dimethoxyphenyl)-4H-1,2,4-triazol-3-yl)-1-(5-fluoro-2-pyrimidinyl)-2-propanesulfonamide and (2R)-N-(5-(5-chloro-3-pyridinyl)-4-(2,6-dimethoxyphenyl)-4H-1,2,4-triazol-3-yl)-1-(5-fluoro-2-pyrimidinyl)-2-propanesulfonamide] | 0.0085 | – | – | –
CCNC(=O)c1cccc(-c2nnc(NS(=O)(=O)[C@@H](C)Cc3ncc(F)cn3)n2-c2c(OC)cccc2OC)n1 (mixture of isomers) [Example 228.0, 6-(4-(2,6-dimethoxyphenyl)-5-((((1S)-2-(5-fluoro-2-pyrimidinyl)-1-methylethyl)sulfonyl)amino)-4H-1,2,4-triazol-3-yl)-N-ethyl-2-pyridinecarboxamide and 6-(4-(2,6-dimethoxyphenyl)-5-((((1R)-2-(5-fluoro-2-pyrimidinyl)-1-methylethyl)sulfonyl)amino)-4H-1,2,4-triazol-3-yl)-N-ethyl-2-pyridinecarboxamide] | 0.0053 | – | – | –
COc1cccc(OC)c1-n1c(NS(=O)(=O)[C@@H](C)[C@H](O)c2ccc(C#N)cc2)nnc1-c1cncc(C)c1 (mixture of isomers) [Example 247.0, (1R,2S)-1-(4-cyanophenyl)-N-(4-(2,6-dimethoxyphenyl)-5-(5-methyl-3-pyridinyl)-4H-1,2,4-triazol-3-yl)-1-hydroxy-2-propanesulfonamide and (1S,2R)-1-(4-cyanophenyl)-N-(4-(2,6-dimethoxyphenyl)-5-(5-methyl-3-pyridinyl)-4H-1,2,4-triazol-3-yl)-1-hydroxy-2-propanesulfonamide] | 0.0038 | – | – | –
COc1cccc(-c2nnc(NS(=O)(=O)[C@H](C)[C@@H](O)c3cn4ccccc4n3)n2-c2c(OC)cccc2OC)n1 (mixture of isomers) [Example 256.0, (1S,2R)-N-(4-(2,6-dimethoxyphenyl)-5-(6-methoxypyridin-2-yl)-4H-1,2,4-triazol-3-yl)-1-hydroxy-1-(imidazo[1,2-a]pyridin-2-yl)propane-2-sulfonamide and (1R,2S)-N-(4-(2,6-dimethoxyphenyl)-5-(6-methoxypyridin-2-yl)-4H-1,2,4-triazol-3-yl)-1-hydroxy-1-(imidazo[1,2-a]pyridin-2-yl)propane-2-sulfonamide] | 0.0004 | – | – | –
COc1cccc(-c2nnc(NS(=O)(=O)C[C@@H](O)c3cn4ccccc4n3)n2-c2c(OC)cccc2OC)n1 (mixture of isomers) [Example 257.0, (S)-N-(4-(2,6-dimethoxyphenyl)-5-(6-methoxypyridin-2-yl)-4H-1,2,4-triazol-3-yl)-2-hydroxy-2-(imidazo[1,2-a]pyridin-2-yl)ethanesulfonamide and (R)-N-(4-(2,6-dimethoxyphenyl)-5-(6-methoxypyridin-2-yl)-4H-1,2,4-triazol-3-yl)-2-hydroxy-2-(imidazo[1,2-a]pyridin-2-yl)ethanesulfonamide] | 0.00073 | – | – | –
COc1cccc(-c2nnc(NS(=O)(=O)[C@H](C)[C@@H](O)c3cn(C)cn3)n2-c2c(OC)cccc2OC)n1 (mixture of isomers) [Example 258.0, (1S,2R)-N-(4-(2,6-dimethoxyphenyl)-5-(6-methoxypyridin-2-yl)-4H-1,2,4-triazol-3-yl)-1-hydroxy-1-(1-methyl-1H-imidazol-4-yl)propane-2-sulfonamide and (1R,2S)-N-(4-(2,6-dimethoxyphenyl)-5-(6-methoxypyridin-2-yl)-4H-1,2,4-triazol-3-yl)-1-hydroxy-1-(1-methyl-1H-imidazol-4-yl)propane-2-sulfonamide] | 0.002 | – | – | –
COc1cccc(-c2nnc(NS(=O)(=O)[C@H](C)[C@H](O)c3cn(C)cn3)n2-c2c(OC)cccc2OC)n1 (mixture of isomers) [Example 259.0, (1R,2R)-N-(4-(2,6-dimethoxyphenyl)-5-(6-methoxypyridin-2-yl)-4H-1,2,4-triazol-3-yl)-1-hydroxy-1-(1-methyl-1H-imidazol-4-yl)propane-2-sulfonamide and (1S,2S)-N-(4-(2,6-dimethoxyphenyl)-5-(6-methoxypyridin-2-yl)-4H-1,2,4-triazol-3-yl)-1-hydroxy-1-(1-methyl-1H-imidazol-4-yl)propane-2-sulfonamide] | 0.011 | – | – | –
COc1cccc(-c2nnc(NS(=O)(=O)C[C@H](O)c3ccc(F)cc3S(C)(=O)=O)n2-c2c(OC)cccc2OC)n1 (mixture of isomers) [Example 267.0, (R)-N-(4-(2,6-dimethoxyphenyl)-5-(6-methoxypyridin-2-yl)-4H-1,2,4-triazol-3-yl)-2-(4-fluoro-2-(methylsulfonyl)phenyl)-2-hydroxyethanesulfonamide and (S)-N-(4-(2,6-dimethoxyphenyl)-5-(6-methoxypyridin-2-yl)-4H-1,2,4-triazol-3-yl)-2-(4-fluoro-2-(methylsulfonyl)phenyl)-2-hydroxyethanesulfonamide] | – | – | – | EC50 ([1]; Activity hAPJ SPA EC50 IP (μM)): 0.00015 µM
COc1cccc(-c2nnc(NS(=O)(=O)[C@@H](C)[C@H](O)c3ccc(F)cc3)n2-c2c(OC)cccc2OC)n1 (mixture of isomers) [Example 283.0] | – | – | – | EC50 ([1]; Activity hAPJ SPA EC50 IP (μM)): 0.00096 µM
COc1cccc(-c2nnc(NS(=O)(=O)C[C@H](O)c3ccc(F)cn3)n2-c2c(OC)cccc2OC)n1 (mixture of isomers) [Example 315.0, (2R)-N-(4-(2,6-dimethoxyphenyl)-5-(6-methoxy-2-pyridinyl)-4H-1,2,4-triazol-3-yl)-2-(5-fluoro-2-pyridinyl)-2-hydroxyethanesulfonamide and (2S)-N-(4-(2,6-dimethoxyphenyl)-5-(6-methoxy-2-pyridinyl)-4H-1,2,4-triazol-3-yl)-2-(5-fluoro-2-pyridinyl)-2-hydroxyethanesulfonamide] | – | – | – | EC50 ([1]; Activity hAPJ SPA EC50 IP (μM)): 0.00032 µM
COc1cccc(OC)c1-n1c(NS(=O)(=O)[C@H](C)[C@@H](O)c2cnc(C)cn2)nnc1-c1cccnc1 [Example 614.0, (1S,2R)-N-(4-(2,6-dimethoxyphenyl)-5-(3-pyridinyl)-4H-1,2,4-triazol-3-yl)-1-hydroxy-1-(5-methyl-2-pyrazinyl)-2-propanesulfonamide] | – | 6.6 | 6.2 | –
COc1cccc(OC)c1-n1c(NS(=O)(=O)CCc2ccc(F)cc2C#N)nnc1-c1cncc(C)c1 [Example 621.0, 2-(2-cyano-4-fluorophenyl)-N-(4-(2,6-dimethoxyphenyl)-5-(5-methyl-3-pyridinyl)-4H-1,2,4-triazol-3-yl)ethanesulfonamide] | – | 7.4 | 6.0 | –
COc1ncnc(OC)c1-n1c(NS(=O)(=O)[C@@H](C)[C@H](C)c2ncc(Cl)cn2)nnc1-c1cccnc1 [Example 709.0, (2S,3R)-3-(5-chloro-2-pyrimidinyl)-N-(4-(4,6-dimethoxy-5-pyrimidinyl)-5-(3-pyridinyl)-4H-1,2,4-triazol-3-yl)-2-butanesulfonamide] | – | 6.0 | 3.0 | –
COc1cccc(-c2nnc(NS(=O)(=O)[C@@H](C)[C@H](C)c3ncc(Cl)cn3)n2-c2c(OC)ncnc2OC)n1 [Example 710.0, (2S,3R)-3-(5-chloro-2-pyrimidinyl)-N-(4-(4,6-dimethoxy-5-pyrimidinyl)-5-(6-methoxy-2-pyridinyl)-4H-1,2,4-triazol-3-yl)-2-butanesulfonamide] | – | 12.7 | 10.3 | –
COc1cccc(-c2nnc(NS(=O)(=O)[C@@H](C)[C@H](C)c3ncc(C)cn3)n2-c2c(F)cccc2F)n1 [Example 784.0, (2S,3R)-N-(4-(2,6-difluorophenyl)-5-(6-methoxy-2-pyridinyl)-4H-1,2,4-triazol-3-yl)-3-(5-methyl-2-pyrimidinyl)-2-butanesulfonamide] | – | 4.3 | 1.93 | –
COc1cccc(-c2nnc(NS(=O)(=O)[C@@H](C)[C@H](C)c3cnc(C)cn3)n2-c2c(OC)ncnc2OC)n1 [Example 799.0, (2S,3R)-N-(4-(4,6-dimethoxy-5-pyrimidinyl)-5-(6-methoxy-2-pyridinyl)-4H-1,2,4-triazol-3-yl)-3-(5-methyl-2-pyrazinyl)-2-butanesulfonamide] | – | 7.8 | 14.1 | –
COc1cnc([C@@H](C)[C@H](C)S(=O)(=O)Nc2nnc(-c3cccnc3)n2-c2c(OC)ncnc2OC)cn1 [Example 803.0, (2S,3R)-N-(4-(4,6-dimethoxy-5-pyrimidinyl)-5-(3-pyridinyl)-4H-1,2,4-triazol-3-yl)-3-(5-methoxy-2-pyrazinyl)-2-butanesulfonamide] | – | 11.4 | 10.0 | –
